B1: PVN-CAR-F: native RCNMV conjugated via SMCC with fluorescein-labeled CAR targeting peptide (conjugate)
chain: LSITTPEEMIEKAKGETAYLPCKFTLSPEDQGPLDIEWLISPADNQKVDQVIILYSGDKIYDDYYPDLKGRVHFTSNDLKSGDASINVTNLQLSDIGTYQCKVKKAPGVANKKIHLVVLVKPSGARCYVDGSEEIGSDFKIKCEPKEGSLPLQYEWQKLSDSQKMPTSWLAEMTSSVISVKNASSEYSGTYSCTVRNRVGSDQCLLRLNVVPPSNKAGLIAGAIIGTLLALALIGLIIFCCRKKRREEKYEKEVHHDIREDVPPPKSRTSTARSYIGSNHSSLGSMSPSNMEGYSKTQYNQVPSEDFERTPQSPTLPPAKVAAPNLSRMGAIPVMIPAQSKDGSIV

Tests used:
HeLa cells [1] = assay: MTT cell viability assay; format: cell-based; conditions: 7 uM DOX, 24 hours
Description: The effect of DOX-PVN-CD46 on cell viability was measured using an MTT assay (FIG. 10A). HeLa cells were exposed to a free DOX, DOX-PVN, and DOX-PVN-CD46 for 24 hours at DOX concentrations ranging from 0.01 uM to 12 uM prior assaying. […] On the other hand, the percentage of viable cell was approximately 70-80% when the same concentration of free DOX (7 uM) was delivered to the cells. […] The PVN has two desirable properties as a drug delivery platform. First, it sequesters drugs effectively in blood and other biofluids. Second, it delivers drugs inside cells triggered by divalent ion concentration and with a timed release that increases the efficacy of drugs that rely on interactions with DNA. FACS was used to determine the dose-response of DOX-PVN-CD46-F after a 2-hour exposure (FIG. 10B). Cell detachment is an early sign of apoptosis. One method to determining cell survival is to count the number of adherent cells. At a PVN concentration of 1 pM, the number of adherent cells is reduced by approximately 25% (FIG. 10B). The FACS experiments in the lower panel of FIG. 10B counts only the adherent cells. Thus, the reduction in viable (adherent) cells accounts for the low levels of PVN internalization measured by fluorescence intensity. The number of adherent cells decreases to 50% at a DOX-PVN-CD46-F concentration of 100 μM (data not shown).

HeLa cells [2] = assay: PVN internalization by FACS / fluorescent microscopy; format: cell-based
Description: Flow cytometry measurements were carried out with the Becton Dickinson FACSCalibur® running Cellquest Pro. Flow cytometry is sometimes referred to as “FACS” herein. The positive population of cells is determined by gating the right-hand tail of the distribution of the negative control sample for each individual cell line at 1%. This setting can then used to determine the percentage of positive cells for each of the above markers for each individual cell line.
We have observed that PVNs with targeting peptides attached to the surface can be internalized into mammalian cells. […] Surface coverage can be determined in a fluorometer using a fluorescein standard curve to quantify the number of fluorophores in the sample and the UV-vis spectrum to quantify the concentration of RCNMV. Based on the measured fluorescence, we determined that the surface of the PVN was labeled with approximately 60 CD46-F peptides. The endocytosis of these formulations was detected using fluorescent microscopy and FACS. FACS quantifies PVN cellular uptake and cargo release in a two-channel fluorescence measurement on populations of hundreds of thousands of cells. […]

Molecule	percentage of viable cells (HeLa cells [1])	internalization in HeLa versus HepG2 cell lines (HeLa cells [2])
COc1cccc2c1C(=O)c1c(O)c3c(c(O)c1C2=O)C[C@@](O)(C(=O)CO)C[C@@H]3O[C@H]1C[C@H](N)[C@H](O)[C@H](C)O1 [DOX, doxorubicin]	70-80%	–
B1	–	nearly the same level of internalization
